# According to patent US11407756B2, “Heterocyclic compounds and noxious arthropod control agent containing same” (SUMITOMO CHEMICAL COMPANY, LIMITED, priority 2017, dated 2022):
# System: German cockroaches (Blattella germanica)
# Assay: Test method 8: treated filter paper with sucrose, male adult German cockroaches
# Type: in vivo
# Details: 500 ppm, 0.7 mL on filter paper, after 6 days, 25° C.
# Description: Next, Test Examples are used to show effects of the Present compounds X on harmful arthropods. In the following Test Examples, the tests were carried out at 25° C.
# Each test compound is formulated according to the process described in the Formulation Example 5 to obtain each formulation, and water is added thereto to prepare a diluted solution containing a prescribed concentration of each test compound.
# A filter paper having a diameter of 5.5 cm is lined with the inside bottom of a cup having a diameter of 5.5 cm, each of said diluted solutions (0.7 mL) is added dropwise on the filter paper, and sucrose (30 mg) is homogeneously placed into said cup as a feed. Two (2) male adult German cockroaches (Blattella germanica) are released into said cup, and the cup is covered. After 6 days, life and death of the German cockroach are examined, the number of the dead insects is counted, and the mortality of insects is calculated by the following equation. Mortality(%)=(Number of dead insects/Number of test insects)×100
smiles,measurement,value
CCS(=O)(=O)c1cc(OC(C)C)cnc1-n1ccc2nc(C(F)(F)F)cn2c1=O [compound 12],mortality,100%
